From patent US8952024B2, “Herbicidal pyrimidone derivatives” (E I du Pont de Nemours and Company, priority 2009, dated 2015)

Experiments:
Format in all cases: in vivo
[1] = tested on: field violet (Viola arvensis); test: Test C plant response; details: Postemergence, scale 0 to 100
Description: Seeds of plant species selected from bluegrass (annual bluegrass, Poa annua), blackgrass (Alopecurus myosuroides), canarygrass (Phalaris minor), chickweed (common chickweed, Stellaria media), galium (catchweed bedstraw, Galium aparine), bromegrass (downy bromegrass, Bromus tectorum), field poppy (Papaver rhoeas), field violet (Viola arvensis), green foxtail (Setaria viridis), deadnettle (henbit deadnettle, Lamium amplexicaule), Italian ryegrass (Lolium multiflorum), kochia (Kochia scoparia), lambsquarters (Chenopodium album), oilseed rape (Brassica napus), pigweed (Amaranthus retroflexus), Russian thistle (Salsola iberica), spring barley (Hordeum vulgare), spring wheat (Triticum aestivum), buckwheat (wild buckwheat, Polygonum convolvulus), wild mustard (Sinapis arvensis), wild oat (Avena fatua), wild radish (Raphanus raphanistrum), windgrass (Apera spica-venti), winter barley (Hordeum vulgare), and winter wheat (Triticum aestivum) were planted and treated postemergence with test chemicals formulated in a non-phytotoxic solvent mixture which included a surfactant. Plants ranged in height from 2 to 18 cm (1- to 4-leaf stage).
Treated plants and controls were maintained in a controlled growth environment for 14 days after which time all test plants were visually evaluated and compared to controls. Plant response ratings, summarized in Table C, are based on a scale of 0 to 100 where 0 is no effect and 100 is complete control. A dash (-) response means no test result.

[2] = tested on: naked crabgrass (Digitaria nuda); test: Test D pre-/postemergence plant response
How it was run: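 Each species was planted in mixed loam and sand, treated either before emergence or at the 1- to 4-leaf stage, then kept under glass for 14 to 21 days. Plant response was scored by eye from 0 to 100 relative to controls; a dash marks no result.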

[3] = tested on: water seeded rice seedlings (Oryza sativa cv. ‘Japonica—M202’); test: Test E flooded paddy rice and weeds; details: applied to paddy water, 21 days, scale 0 to 100
How it was run: (§1)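 Visual ratings (0 = no effect, 100 = complete control), taken 21 days after treatment against untreated pots. Treatment was by application to paddy water kept 3 cm above the soil, at the 2.0 to 2.5-leaf stage. Grown under 30/27° C, 16-hour photoperiod.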

[4] = tested on: ricefield bulrush (Scirpus mucronatus); test: Test E flooded paddy rice and weeds; details: applied to paddy water, 21 days, scale 0 to 100
How it was run: as §1

[5] = tested on: early watergrass (Echinochloa oryzoides); test: Test E flooded paddy rice and weeds; details: applied to paddy water, 21 days, scale 0 to 100
How it was run: as §1

[6] = tested on: transplanted rice seedlings (Oryza sativa cv. ‘Japonica—M202’); test: Test E flooded paddy rice and weeds; details: applied to paddy water, 21 days, scale 0 to 100
How it was run: as §1

[7] = tested on: junglerice (Echinochloa colona); test: Test E flooded paddy rice and weeds; details: applied to paddy water, 21 days, scale 0 to 100
How it was run: as §1

[8] = tested on: redstem (purple redstem, Ammannia coccinea); test: Test E flooded paddy rice and weeds; details: applied to paddy water, 21 days, scale 0 to 100
How it was run: as §1

[9] = tested on: barnyardgrass (Echinochloa crus-galli); test: Test E flooded paddy rice and weeds; details: applied to paddy water, 21 days, scale 0 to 100
How it was run: as §1

[10] = tested on: ducksalad (Heteranthera limosa); test: Test E flooded paddy rice and weeds; details: applied to paddy water, 21 days, scale 0 to 100
How it was run: as §1

[11] = Postemergence, 31 g ai/ha, scale 0 to 100
[12] = Postemergence, 62 g ai/ha, scale 0 to 100 (0 no effect, 100 complete control)
[13] = Postemergence, 125 g ai/ha, scale 0 to 100 (0 no effect, 100 complete control)
[14] = Postemergence, 16 g ai/ha, scale 0 to 100
[15] = Preemergence, 16 g ai/ha, scale 0 to 100, 0 no effect, 100 complete control
[16] = Preemergence, 31 g ai/ha, scale 0 to 100 (0 no effect, 100 complete control)
[17] = Preemergence, 62 g ai/ha, scale 0 to 100
[18] = Preemergence, 125 g ai/ha, scale 0 to 100

SMILES: Cc1cc(C)cc(-n2c(-c3ccccc3)ncc(C(=O)C3=C(O)CCCC3=O)c2=O)c1 [Compound 33]
- Plant response rating: Field Violet ([1]; 31 g ai/ha): 90
- Plant response rating: Field Violet ([1]; 16 g ai/ha): 65
- Plant response rating: Field Violet ([1]; 62 g ai/ha): 95
- Plant response rating: Field Violet ([1]; 125 g ai/ha): 95

SMILES: O=C1CCCC(O)=C1C(=O)c1cnc(-c2ccccc2)n(CC2CCCO2)c1=O (centres unmarked) [Compound 59]
- Plant response rating, Crabgrass, Naked [2, 11]: 30
- Plant response rating, Crabgrass, Naked [2, 12]: 50
- Plant response rating, Crabgrass, Naked [2, 13]: 70
- Plant response rating, Crabgrass, Naked [2, 14]: 20
- Plant response rating, Crabgrass, Naked [2, 15]: 0
- Plant response rating, Crabgrass, Naked [2, 16]: 0
- Plant response rating, Crabgrass, Naked [2, 17]: 65
- Plant response rating, Crabgrass, Naked [2, 18]: 95

SMILES: COCCn1c(-c2ccccc2)ncc(C(=O)C2=C(O)CCCC2=O)c1=O [Compound 85]
- Plant response rating, Crabgrass, Naked [2, 11]: 50
- Plant response rating, Crabgrass, Naked [2, 12]: 75
- Plant response rating, Crabgrass, Naked [2, 13]: 80
- Plant response rating, Crabgrass, Naked [2, 15]: 0
- Plant response rating, Crabgrass, Naked [2, 16]: 95
- Plant response rating, Crabgrass, Naked [2, 17]: 95
- Plant response rating, Crabgrass, Naked [2, 18]: 98

SMILES: COc1ccc(-n2c(-c3ccccc3)ncc(C(=O)C3=C(O)CCCC3=O)c2=O)cc1OC [Compound 218]
- Plant response rating, Rice, Water Seeded, Flood ([3]; 32 g ai/ha): 15
- Plant response rating, Rice, Water Seeded, Flood ([3]; 64 g ai/ha): 0
- Plant response rating, Rice, Water Seeded, Flood ([3]; 125 g ai/ha): 20
- Plant response rating, Rice, Water Seeded, Flood ([3]; 250 g ai/ha): 35
- Plant response rating, Bulrush, Ricefield, Flood ([4]; 32 g ai/ha): 80
- Plant response rating, Bulrush, Ricefield, Flood ([4]; 64 g ai/ha): 80
- Plant response rating, Bulrush, Ricefield, Flood ([4]; 125 g ai/ha): 90
- Plant response rating, Bulrush, Ricefield, Flood ([4]; 250 g ai/ha): 100
- Plant response rating, Watergrass, Early, Flood ([5]; 32 g ai/ha): 0
- Plant response rating, Watergrass, Early, Flood ([5]; 64 g ai/ha): 20
- Plant response rating, Watergrass, Early, Flood ([5]; 125 g ai/ha): 20
- Plant response rating, Watergrass, Early, Flood ([5]; 250 g ai/ha): 60
- Plant response rating, Rice, Transplanted, Flood ([6]; 32 g ai/ha): 0
- Plant response rating, Rice, Transplanted, Flood ([6]; 64 g ai/ha): 0
- Plant response rating, Rice, Transplanted, Flood ([6]; 125 g ai/ha): 0
- Plant response rating, Rice, Transplanted, Flood ([6]; 250 g ai/ha): 10
- Plant response rating, Junglerice, Flood ([7]; 32 g ai/ha): 0
- Plant response rating, Junglerice, Flood ([7]; 64 g ai/ha): 0
- Plant response rating, Junglerice, Flood ([7]; 125 g ai/ha): 65
- Plant response rating, Junglerice, Flood ([7]; 250 g ai/ha): 100
- Plant response rating, Redstem, Flood ([8]; 32 g ai/ha): 65
- Plant response rating, Redstem, Flood ([8]; 64 g ai/ha): 65
- Plant response rating, Redstem, Flood ([8]; 125 g ai/ha): 75
- Plant response rating, Redstem, Flood ([8]; 250 g ai/ha): 80
- Plant response rating, Barnyardgrass, Flood ([9]; 32 g ai/ha): 0
- Plant response rating, Barnyardgrass, Flood ([9]; 64 g ai/ha): 0
- Plant response rating, Barnyardgrass, Flood ([9]; 125 g ai/ha): 30
- Plant response rating, Barnyardgrass, Flood ([9]; 250 g ai/ha): 95
- Plant response rating, Ducksalad, Flood ([10]; 32 g ai/ha): 80
- Plant response rating, Ducksalad, Flood ([10]; 64 g ai/ha): 85
- Plant response rating, Ducksalad, Flood ([10]; 125 g ai/ha): 95
- Plant response rating, Ducksalad, Flood ([10]; 250 g ai/ha): 100

SMILES: COCCn1c(-c2cccc(C)c2)ncc(C(=O)C2=C(O)C3CCC(C3)C2=O)c1=O (centres unmarked) [Compound 233]
- Plant response rating, Crabgrass, Naked [2, 11]: 50
- Plant response rating, Crabgrass, Naked [2, 12]: 60
- Plant response rating, Crabgrass, Naked [2, 13]: 70
- Plant response rating, Crabgrass, Naked [2, 14]: 30
- Plant response rating, Crabgrass, Naked [2, 15]: 0
- Plant response rating, Crabgrass, Naked [2, 16]: 0
- Plant response rating, Crabgrass, Naked [2, 17]: 65
- Plant response rating, Crabgrass, Naked [2, 18]: 65

SMILES: COCCn1c(-c2cc(F)cc(F)c2)ncc(C(=O)C2=C(O)C3CCC(C3)C2=O)c1=O (centres unmarked) [Compound 243, 2-(3,5-difluorophenyl)-5-[(2-hydroxy-4-oxobicyclo[3.2.1]oct-2-en-3-yl)carbonyl]-3-(2-methoxyethyl)-4(3H)-pyrimidinone]
- Plant response rating, Crabgrass, Naked [2, 17]: 100
- Plant response rating, Crabgrass, Naked [2, 18]: 100
- Plant response rating, Crabgrass, Naked ([2]; Preemergence, 250 g ai/ha, scale 0 to 100): 100
